US10464896B2, “Efflux-pump inhibitors and therapeutic uses thereof” (Basilea Pharmaceutica International AG, priority 2015, dated 2019)

The compounds below were run on E. coli ATCC25922 (assay: Antibacterial activity in combination with minocycline (growth inhibition)). Settings: Escherichia coli, ATCC25922, compound at 25 μM; minocycline 0.25 μg/mL; OD625 23 h minus 1 h; read-out: residual growth of E. coli ATCC25922 (% of uninhibited control) with minocycline.
Type: cell-based
Description: Antibacterial activity in combination with minocycline or with linezolid
Inhibition of growth was measured with E. coli ATCC25922 and P. aeruginosa PAO1 in a 96-well plate format. Cation-adjusted Müller-Hinton broth (caMHB) was inoculated with an overnight culture and incubated at 37° C. on a shaker until OD625 reached 0.6 to 0.7. Density was adjusted to OD600=0.5 by addition of caMHB. 35 μL of the suspension were diluted to 35 mL with caMHB and supplemented with minocycline at the subinhibitory doses of 0.25 μg/mL for E. coli and 8 μg/mL for P. aeruginosa or with linezolid at the subinhibitory dose of 128 μg/mL for E. coli and P. aeruginosa. Each well contained 1 μL of test compound in 100 μL caMHB with minocycline or with linezolid.
Plates were incubated at 37° C. on a plate shaker. OD625 was measured at 1 h, 6 h, and at 23 h.
The difference between OD at 23 h and at 1 h was taken as measure for cell density and compared to controls without inhibitor (i.e. uninhibited control). Results were expressed as residual growth (% of uninhibited control). Enhancement of minocycline or linezolid activity caused reduced residual growth.

| SMILES | activity at 25 µM [%] |
| --- | --- |
| Clc1ccc(COc2ccccc2CCNCC2CNC2)c(Br)c1 [Example 125] | ≤ 10 |
| Clc1ccc(OCc2ccc(Br)c(OCCCNCC3CNC3)c2)c(Br)c1 [Example 126] | ≤ 10 |
| O=Cc1cc(CNCC2CNC2)cc(OCc2ccc(Cl)cc2Br)c1 [Example 127] | ≤ 10 |
| OCc1cc(CNCC2CNC2)cc(OCc2ccc(Cl)cc2Br)c1 [Example 128] | ≤ 10 |
| CCOC(=O)/C=C/c1cc(CNCC2CNC2)cc(OCc2ccc(Cl)cc2Br)c1 [Example 129, Ethyl (E)-3-[3-[(azetidin-3-ylmethylamino)methyl]-5-[(2-bromo-4-chloro-phenyl)methoxy]phenyl]prop-2-enoate] | ≤ 10 |
| Clc1ccc(COc2cc(/C=C/c3ccco3)cc(CNCC3CNC3)c2)c(Br)c1 [Example 130, N-(azetidin-3-ylmethyl)-1-[3-[(2-bromo-4-chloro-phenyl)methoxy]-5-[(E)-2-(2-furyl)vinyl]phenyl]methanamine] | ≤ 10 |
| FC(F)(F)c1cc(Cl)ccc1COc1cccc(CNCC2CCNC2)c1 (stereo not drawn) [Example 132] | ≤ 10 |
| Clc1ccc(CSc2ccc(CNCC3CNC3)cc2)c(Br)c1 [Example 133] | ≤ 10 |
| Clc1ccc(CSc2ccc(CNCC3CCNC3)cc2)c(Br)c1 (stereo not drawn) [Example 134] | ≤ 10 |
| Clc1ccc(CSc2cccc(CNCC3CCNC3)c2)c(Br)c1 (stereo not drawn) [Example 136, 1-[3-[(2-bromo-4-chloro-phenyl)methylsulfanyl]phenyl]-N-(pyrrolidin-3-ylmethyl)methanamine] | ≤ 10 |
| Clc1ccc(/C=C/c2ccc(CNCC3CNC3)cc2)c(Br)c1 [Example 142] | ≤ 10 |
| Clc1ccc(/C=C/c2ccc(CNCC3CCNC3)cc2)c(Br)c1 (stereo not drawn) [Example 147] | ≤ 10 |
| O=[N+]([O-])c1ccc(CNCC2CCNC2)cc1OCc1ccc(Cl)cc1Br (stereo not drawn) [Example 148] | ≤ 10 |
| Clc1ccc(C#Cc2cccc(CNCC3CNC3)c2)c(Br)c1 [Example 149, N-(azetidin-3-ylmethyl)-1-[3-[2-(2-bromo-4-chlorophenyl)ethynyl]phenyl]methanamine] | ≤ 10 |
| Clc1ccc(C#Cc2cccc(CNCC3CCNC3)c2)c(Br)c1 (stereo not drawn) [Example 150] | ≤ 10 |
| Clc1cc(/C=C/c2ccc(Cl)cc2Br)cc(CNCC2CCNC2)c1 (stereo not drawn) [Example 157] | ≤ 10 |
| Clc1ccc(CNc2cccc(CNCC3CNC3)c2)c(Br)c1 [Example 158, 3-[(azetidin-3-ylmethylamino)methyl]-N-[(2-bromo-4-chloro-phenyl)methyl]aniline] | ≤ 10 |
| Clc1cc(/C=C/c2ccc(Cl)cc2Br)cc(CNCC2CNC2)c1 [Example 159] | ≤ 10 |
| CC(C)Oc1cc(CNCC2CCNC2)cc(OCc2ccc(Cl)cc2Br)c1 (stereo not drawn) [Example 163] | ≤ 10 |
| Clc1ccc(/C=C/c2cccc(CCNCC3CCNC3)c2)c(Br)c1 (stereo not drawn) [Example 164] | ≤ 10 |
| Clc1ccc(/C=C/c2cccc(CCNCC3CNC3)c2)c(Br)c1 [Example 165, N-(azetidin-3-ylmethyl)-2-[3-[(E)-2-(2-bromo-4-chloro-phenyl)vinyl]phenyl]ethanamine] | ≤ 10 |
| Clc1ccc(C=CCc2cccc(CNCC3CCNC3)c2)c(Br)c1 (stereo not drawn) [Example 169] | ≤ 10 |

| SMILES | activity at 25 µM [%] |
| --- | --- |
| N[C@@H]1CN[C@@H](CNCc2cccc(/C=C/c3ccc(Cl)cc3Br)c2)C1 [Example 171] | ≤ 10 |
| N[C@@H]1CN[C@@H](CNCc2cccc(OCc3ccc(Cl)cc3Br)c2)C1 [Example 172] | ≤ 10 |
| Clc1ccc(COCc2cccc(CNCC3CCNC3)c2)c(Br)c1 (stereo not drawn) [Example 174] | ≤ 10 |
| N[C@@H]1CN[C@@H](CNCc2cc(Cl)cc(OCc3ccc(Cl)cc3Br)c2)C1 [Example 175] | ≤ 10 |
| Clc1ccc(COc2cccc(CNCC3CCNC3)c2)c(Cl)c1 (stereo not drawn) [Example 176] | ≤ 10 |
| C=CCOc1cc(/C=C/c2ccc(Cl)cc2Br)cc(CNCC2CCNC2)c1 (stereo not drawn) [Example 178] | ≤ 10 |
| C=CCOc1cc(/C=C/c2ccc(Cl)cc2Br)cc(CNCC2CNC2)c1 [Example 180] | ≤ 10 |
| Clc1ccc(/C=C/c2cc(CNCC3CCNC3)cc(OCc3ccccc3)c2)c(Br)c1 (stereo not drawn) [Example 181] | ≤ 10 |
| CC(C)COc1cc(/C=C/c2ccc(Cl)cc2Br)cc(CNCC2CCNC2)c1 (stereo not drawn) [Example 182] | ≤ 10 |
| C=CCOc1cc(CNCC2CNC2)cc(CSc2ccc(Cl)cc2C(F)(F)F)c1 [Example 183] | ≤ 10 |
| C=CCOc1cc(CNCC2CCNC2)cc(CSc2ccc(Cl)cc2C(F)(F)F)c1 (stereo not drawn) [Example 184] | ≤ 10 |
| Clc1ccc(/C=C/c2ccc(Cl)cc2OCCCNCC2CCNC2)c(Br)c1 (stereo not drawn) [Example 185] | ≤ 10 |
| Clc1ccc(/C=C/c2cc(Cl)ccc2OCCCNCC2CCNC2)c(Br)c1 (stereo not drawn) [Example 186] | ≤ 10 |
| Clc1ccc(/C=C/c2ccc(Cl)cc2OCCCNCC2CNC2)c(Br)c1 [Example 187] | ≤ 10 |
| Clc1cc(/C=C/c2ccc(Cl)cc2Br)cc(OCCCNCC2CNC2)c1 [Example 188] | ≤ 10 |
| Clc1cc(/C=C/c2ccc(Cl)cc2Br)cc(OCCCNCC2CCNC2)c1 (stereo not drawn) [Example 189] | ≤ 10 |
| CC(C)COc1cc(/C=C/c2ccc(Cl)cc2Br)cc(CNCC2CNC2)c1 [Example 190] | ≤ 10 |
| NCC1CCC(CNCc2cccc(/C=C/c3ccc(Cl)cc3Br)c2)N1 (stereo not drawn) [Example 191] | ≤ 10 |
| NCC1CCC(CNCc2cc(Cl)cc(OCc3ccc(Cl)cc3Br)c2)N1 (stereo not drawn) [Example 193] | ≤ 10 |
| C=CCOc1cc(CNCC2CCNC2)cc(CSc2ccc(Cl)cc2Br)c1 (stereo not drawn) [Example 194] | ≤ 10 |
| C=CCOc1cc(CNCC2CNC2)cc(CSc2ccc(Cl)cc2Br)c1 [Example 196] | ≤ 10 |
| COC(=O)c1ccc(COc2cc(CNCC3CCNC3)cc(OCc3ccc(Cl)cc3Br)c2)cc1 (stereo not drawn) [Example 197] | ≤ 10 |

| SMILES | activity at 25 µM [%] |
| --- | --- |
| Clc1ccc(/C=C/c2cc(CNCC3CNC3)cc(OCc3ccccc3)c2)c(Br)c1 [Example 198] | ≤ 10 |
| Clc1ccc(/C=C/c2cc(Cl)ccc2OCCCNCC2CNC2)c(Br)c1 [Example 199] | ≤ 10 |
| Clc1ccc(/C=C/c2ccccc2OCCCNCC2CNC2)c(Br)c1 [Example 200] | ≤ 10 |
| Clc1ccc(/C=C/c2cccc(OCCCNCC3CNC3)c2)c(Br)c1 [Example 201, N-(azetidin-3-ylmethyl)-3-[3-[(E)-2-(2-bromo-4-chloro-phenyl)vinyl]phenoxy]propan-1-amine] | ≤ 10 |
| Clc1ccc(/C=C/c2cccc(OCCCNCC3CCNC3)c2)c(Br)c1 (stereo not drawn) [Example 202] | ≤ 10 |
| Clc1ccc(/C=C/c2ccccc2OCCCNCC2CCNC2)c(Br)c1 (stereo not drawn) [Example 203] | ≤ 10 |
| O=C(O)c1ccc(COc2cc(CNCC3CCNC3)cc(OCc3ccc(Cl)cc3Br)c2)cc1 (stereo not drawn) [Example 205] | ≤ 10 |
| Ic1ccc(COc2cccc(CNCC3CCNC3)c2)cc1 (stereo not drawn) [Example 207] | ≤ 10 |
| Clc1ccc(/C=C/c2cc(Cl)ccc2OCCNCC2CNC2)c(Br)c1 [Example 209] | ≤ 10 |
| Clc1ccc(/C=C/c2cc(Cl)ccc2OCCNCC2CCNC2)c(Br)c1 (stereo not drawn) [Example 210] | ≤ 10 |
| C=CCOc1ccc(OCCNCC2CCNC2)c(/C=C/c2ccc(Cl)cc2Br)c1 (stereo not drawn) [Example 211] | ≤ 10 |
| C=CCOc1ccc(OCCNCC2CNC2)c(/C=C/c2ccc(Cl)cc2Br)c1 [Example 212] | ≤ 10 |
| C=CCOc1ccc(OCCCNCC2CCNC2)c(/C=C/c2ccc(Cl)cc2Br)c1 (stereo not drawn) [Example 213] | ≤ 10 |
| C=CCOc1ccc(OCCCNCC2CNC2)c(/C=C/c2ccc(Cl)cc2Br)c1 [Example 214] | ≤ 10 |
| CC(C)(C)c1ccc(COc2ccc(CNCC3CCNC3)cc2)cc1 (stereo not drawn) [Example 215] | ≤ 10 |
| CC(C)(C)c1ccc(COc2cccc(CNCC3CCNC3)c2)cc1 (stereo not drawn) [Example 216] | ≤ 10 |
| CC(C)c1cc(CNCC2CCNC2)cc(OCc2ccc(Cl)cc2Br)c1 (stereo not drawn) [Example 217] | ≤ 10 |
| CC(C)(C)c1cc(CNCC2CCNC2)cc(OCc2ccc(Cl)cc2Br)c1 (stereo not drawn) [Example 218] | ≤ 10 |
| CC(C)c1cc(CNCC2CNC2)cc(OCc2ccc(Cl)cc2Br)c1 [Example 224] | ≤ 10 |
| CC(C)(C)c1cc(CNCC2CNC2)cc(OCc2ccc(Cl)cc2Br)c1 [Example 225] | ≤ 10 |
| CC(C)(C)c1ccc(COc2cc(Cl)cc(CNC3CCNCC3)c2)cc1 [Example 226] | ≤ 10 |
| CC(C)(C)c1ccc(COc2cc(Cl)cc(CNCC3CCNC3)c2)cc1 (stereo not drawn) [Example 227] | ≤ 10 |

Same assay, conditions: Escherichia coli, ATCC25922, compound at 50 μM; minocycline 0.25 μg/mL; OD625 23 h minus 1 h; read-out: residual growth of E. coli ATCC25922 (% of uninhibited control) with minocycline

| SMILES | activity at 50 µM [%] |
| --- | --- |
| [O-][S+](Cc1ccc(Cl)cc1Br)c1cccc(CNCC2CCNC2)c1 (stereo not drawn) [Example 137, 1-[3-[(2-bromo-4-chloro-phenyl)methylsulfinyl]phenyl]-N-(pyrrolidin-3-ylmethyl)methanamine] | ≤ 50 |
| O=S(=O)(Cc1ccc(Cl)cc1Br)c1ccc(CNCC2CNC2)cc1 [Example 138] | ≤ 50 |
| Ic1ccccc1COc1cccc(CNCC2CNC2)c1 [Example 195] | ≤ 50 |
